Results on two molecules are retold here after article PMC3411725 (PLoS ONE, 2012).

Series [1] has as its target T1, AroAE.coli (Escherichia coli, UniProt P0A6D3).
T1 construct: gene aroA; overexpressed and purified as P1 (pET-28a, His-tag, E. coli BL21(DE3), HisTrap)
T1 sequence (P0A6D3 1-427): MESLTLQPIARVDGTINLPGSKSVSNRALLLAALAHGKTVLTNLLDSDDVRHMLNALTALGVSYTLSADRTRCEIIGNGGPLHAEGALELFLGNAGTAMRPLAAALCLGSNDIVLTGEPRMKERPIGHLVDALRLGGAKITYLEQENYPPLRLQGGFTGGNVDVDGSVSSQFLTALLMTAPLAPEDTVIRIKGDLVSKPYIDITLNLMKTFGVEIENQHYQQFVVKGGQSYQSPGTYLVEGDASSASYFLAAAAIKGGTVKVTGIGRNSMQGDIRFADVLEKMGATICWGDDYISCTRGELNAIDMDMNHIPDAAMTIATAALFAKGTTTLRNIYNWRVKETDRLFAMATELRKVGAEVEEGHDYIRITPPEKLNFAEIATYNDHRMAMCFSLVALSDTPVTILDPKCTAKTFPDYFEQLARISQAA
Briefly: malachite green phosphate release assay, Lineweaver-Burk. It counts as biochemical. The note with it: read-out: K i [glyphosate] ^d.

The target in series [2] is T2, AroAE.coli (Escherichia coli, UniProt P0A6D3, G96A).
T2 construct: gene aroA
Kind of series: biochemical.

The target in series [3] is T2, AroAE.coli. Kind of series: biochemical. This is another data set of the same source.
Series [4] concerns the target T1, AroAE.coli. Briefly: malachite green phosphate release assay, dose-response fit. In kind it is biochemical. To be noted: read-out: IC50 [glyphosate] ^e.
Substrate in series [5]: C=C(OP(=O)(O)O)C(=O)O
Briefly: malachite green phosphate release assay, Lineweaver-Burk. The note with it: 1 mM S3P, 50 mM HEPES pH 7.0, 28°C. It counts as biochemical, Escherichia coli.

For the molecule `O=C(O)CNCP(=O)(O)O` [glyphosate], the Ki stood at 1.4 ± 0.1 µM on AroAE.coli [1] and 219.3 ± 1.9 µM at AroAE.coli [2]. In addition, the IC50 on AroAE.coli [3] stood at 220 ± 20 µM; at AroAE.coli [4], 50 ± 10 µM.

B1: AroAE.coli (Escherichia coli K-12) (protein)
chain: T1 sequence (P0A6D3 1-427)
notes: overexpressed and purified as P1 (pET-28a, His-tag, E. coli BL21(DE3), HisTrap)
For the molecule B1, the Km in series [5] was 65.8 ± 5.6 µM.
